Measured values from ChEMBL document CHEMBL4007400, “Role of Reactive Oxygen Species (ROS) in Therapeutics and Drug Resistance in Cancer and Bacteria” (J Med Chem, 2017).

Target: T1, 4,4'-diapophytoene synthase (Staphylococcus aureus, UniProt A9JQL9)
T1 sequence (A9JQL9 whole entry): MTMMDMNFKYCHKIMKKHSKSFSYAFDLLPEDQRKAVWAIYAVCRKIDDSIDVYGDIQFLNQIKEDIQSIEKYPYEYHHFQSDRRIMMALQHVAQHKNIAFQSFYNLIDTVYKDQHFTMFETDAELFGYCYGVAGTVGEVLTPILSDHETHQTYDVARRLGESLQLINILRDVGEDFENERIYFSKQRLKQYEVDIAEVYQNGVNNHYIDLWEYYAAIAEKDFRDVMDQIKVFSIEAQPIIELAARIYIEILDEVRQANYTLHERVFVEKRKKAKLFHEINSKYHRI
Assay: Inhibition of Staphylococcus aureus ATCC 27659 histidine-tagged full length CrtM expressed in Escherichia coli BL21(DE3) cells assessed as decrease in staphyloxanthin formation after 30 mins by continous spectrophotometric method

## O=P(O)(O)C(CCCc1cccc(Oc2ccccc2)c1)S(=O)(=O)O (stereo unspecified)
  Ki: 1.5 nM
